Assay results as given in patent US20220370406A1, “METHOD OF TREATING STIMULANT USE DISORDER USING A COMBINATION OF TOPIRAMATE AND PHENTERMINE” (University of Kentucky Research Foundation, priority 2019, published 2022).
Like-named read-outs stand apart in the source and are kept apart here.

Assays:
[1] = tested on: participants with cocaine use disorder; experiment: Cocaine self-administration on progressive-ratio task during topiramate-phentermine maintenance; type: in vivo, human
Experimental: The maintenance period for each condition was at least seven (7) days. Participants randomized to 50 or 100 mg/day topiramate initially received 12.5 and 25 mg immediate release topiramate, respectively, twice daily (0700 and 1900 hours) for three (3) days. Participants then received their target dose (i.e., 25 and 50 mg BID, respectively) for four (4) days prior to completing the first block of experimental sessions. This dosing regimen allowed participants to acclimate to a lower topiramate dose before receiving their target dose and was the rationale for topiramate being a between-subject variable. Participants randomized to placebo were also maintained for seven (7) days to maintain the study blind, but their capsules contained only cornstarch.
Phentermine (0, 15, 30 mg) was administered once daily at 0700 hours. Within each topiramate cohort, the phentermine doses were tested in ascending order such that the lower dose (15 mg/day) was tested prior to the higher dose (30 mg/day). This dosing sequence was violated twice due to oversight (i.e., one subject in the 0 mg/day topiramate group and the other in the 50 mg/day topiramate group). Both of these participants were initially maintained on 30 mg/day phentermine.
After at least seven (7) days of maintenance on the first topiramate-phentermine condition, participants completed a block of three experimental sessions described below. Maintenance on the assigned condition continued during each block of experimental sessions. Upon completion of the first block of experimental sessions, participants continued maintenance on the assigned topiramate condition, while the phentermine dose was changed to the next condition. Maintenance on the second topiramate-phentermine condition also lasted at least seven (7) days before the next block of experimental sessions was completed. […]
The reinforcing effects of cocaine during maintenance on the topiramate-phentermine combinations were assessed using a progressive-ratio task. […]

[2] = tested on: participants with cocaine use disorder; settings: in vivo
[3] = tested on: participants with cocaine use disorder; experiment: Experimental sessions: subjective effects questionnaires after cocaine sampling dose during maintenance; settings: for subjective effects of cocaine: maintenance on the drug alone; for cocaine-increased ratings of High, Like Drug, Active-Alert-Energetic, Rush and Stimulant Subscale: maintenance on topiramate and phentermine, alone or combined
[4] = tested on: participants with cocaine use disorder; experiment: Experimental sessions: cardiovascular measures after cocaine sampling dose during maintenance; settings: maintenance on the drug alone

## CC1(C)O[C@@H]2[C@@H](CO[C@@]3(COS(N)(=O)=O)OC(C)(C)O[C@@H]23)O1 [topiramate]
[1]; cocaine 40 mg, Topiramate alone (100 mg/day)
  reduction of cocaine self-administration: 47%
[2]
  cardiovascular effects of cocaine: did not alter
[3]
  subjective effects of cocaine: did not alter
  cocaine-increased ratings of High, Like Drug, Active-Alert-Energetic, Rush and Stimulant Subscale: did not significantly alter

## CC(C)(N)Cc1ccccc1 [phentermine]
[1]; Phentermine alone
  cocaine self-administration: did not significantly reduce
[1]; maintenance on the drug alone
  reinforcing effects of cocaine: did not significantly alter
[4]
  cardiovascular effects of cocaine: did not significantly alter
[3]
  subjective effects of cocaine: did not significantly alter
  cocaine-increased ratings of High, Like Drug, Active-Alert-Energetic, Rush and Stimulant Subscale: did not significantly alter
